# Data from publication PMC5218480 (PLoS ONE, 2017).
# Test system: MV-4-11 cells
# Assay: Gene expression microarray analysis (Affymetrix PrimeView) and GSEA
# Format: cell-based, human
# Design: RFU PODN (11730768_x_at) / Fold change /veh PODN (11730768_x_at) / RFU LINC00158 (11744669_a_at) / Fold change /veh LINC00158 (11744669_a_at) / RFU DUSP10 (11751237_a_at) / Fold change /veh DUSP10 (11751237_a_at) / RFU ID3 (11757404_x_at) / Fold change /veh ID3 (11757404_x_at) / RFU PLEKHG5 (11737974_s_at) / Fold change /veh PLEKHG5 (11737974_s_at) / RFU LRRC4B (11730491_at) / Fold change /veh LRRC4B (11730491_at) / RFU GIMAP4 (11747438_a_at) / Fold change /veh GIMAP4 (11747438_a_at) / RFU KRT8 (11758183_x_at) / Fold change /veh KRT8 (11758183_x_at) / RFU CNN1 (11734310_a_at) / Fold change /veh CNN1 (11734310_a_at) / RFU VPS37D (11726825_at) / Fold change /veh VPS37D (11726825_at) / RFU C10orf10 (11716522_x_at) / Fold change /veh C10orf10 (11716522_x_at) / RFU KIR2DL2 /// KIR2DL4 /// KIR2DL5A /// KIR2DL5B /// KIR2DS1 /// KIR2DS2 /// KIR2DS3 /// KIR2DS4 /// KIR3DL3 /// KIR3DL3 /// KIR3DS1 (11738374_at) / Fold change /veh KIR2DL2 /// KIR2DL4 /// KIR2DL5A /// KIR2DL5B /// KIR2DS1 /// KIR2DS2 /// KIR2DS3 /// KIR2DS4 /// KIR3DL3 /// KIR3DL3 /// KIR3DS1 (11738374_at) / RFU C1QL1 (11718748_at) / Fold change /veh C1QL1 (11718748_at) / RFU TMPRSS4 (11747572_a_at) / Fold change /veh TMPRSS4 (11747572_a_at) / RFU HAMP (11756126_x_at) / Fold change /veh HAMP (11756126_x_at) / RFU RNFT2 (11725882_a_at) / Fold change /veh RNFT2 (11725882_a_at) / RFU NR4A2 (11747474_a_at) / Fold change /veh NR4A2 (11747474_a_at) / RFU ABCC12 (11746883_a_at) / Fold change /veh ABCC12 (11746883_a_at) / RFU TMEM136 (11760407_x_at) / Fold change /veh TMEM136 (11760407_x_at) / RFU CLDN22 /// WWC2 (11732394_at) / Fold change /veh CLDN22 /// WWC2 (11732394_at) / RFU HLA-DPB1 (11760878_x_at) / Fold change /veh HLA-DPB1 (11760878_x_at) / RFU SPINT1 (11716480_a_at) / Fold change /veh SPINT1 (11716480_a_at) / RFU GAP43 (11754022_s_at) / Fold change /veh GAP43 (11754022_s_at) / RFU A4GNT (11735810_at) / Fold change /veh A4GNT (11735810_at) / RFU PRB3 (11715151_x_at) / Fold change /veh PRB3 (11715151_x_at) / RFU TUBB4B (11761932_at) / Fold change /veh TUBB4B (11761932_at) / RFU CAPN14 (11732068_a_at) / Fold change /veh CAPN14 (11732068_a_at) / RFU TMCC2 (11721928_a_at) / Fold change /veh TMCC2 (11721928_a_at) / RFU IRGQ (11745062_a_at) / Fold change /veh IRGQ (11745062_a_at) / RFU FAM174B (11720279_a_at) / Fold change /veh FAM174B (11720279_a_at) / RFU TMPRSS4 (11748680_a_at) / Fold change /veh TMPRSS4 (11748680_a_at) / RFU FAM212B (11763350_a_at) / Fold change /veh FAM212B (11763350_a_at) / RFU PLEKHG5 (11743358_a_at) / Fold change /veh PLEKHG5 (11743358_a_at) / RFU ZSCAN30 (11745921_a_at) / Fold change /veh ZSCAN30 (11745921_a_at) / RFU CMKLR1 (11741424_a_at) / Fold change /veh CMKLR1 (11741424_a_at) / RFU LOC101060620 /// MAPK8IP1 (11723275_at) / Fold change /veh LOC101060620 /// MAPK8IP1 (11723275_at) / RFU SPTSSB (11747773_x_at) / Fold change /veh SPTSSB (11747773_x_at) / RFU PRSS12 (11739890_at) / Fold change /veh PRSS12 (11739890_at) / RFU BIN1 (11741810_x_at) / Fold change /veh BIN1 (11741810_x_at) / RFU WNT11 (11732464_a_at) / Fold change /veh WNT11 (11732464_a_at) / RFU C10orf10 (11716521_a_at) / Fold change /veh C10orf10 (11716521_a_at) / RFU C5orf56 (11738089_at) / Fold change /veh C5orf56 (11738089_at) / RFU CYB561 (11721691_x_at) / Fold change /veh CYB561 (11721691_x_at) / RFU ANKRD19P (11752326_a_at) / Fold change /veh ANKRD19P (11752326_a_at) / RFU OR2T12 /// OR2T33 /// OR2T8 (11738714_s_at) / Fold change /veh OR2T12 /// OR2T33 /// OR2T8 (11738714_s_at) / RFU VCAN (11748164_a_at) / Fold change /veh VCAN (11748164_a_at) / RFU JSRP1 (11732532_at) / Fold change /veh JSRP1 (11732532_at) / RFU KRTAP10-11 (11738290_x_at) / Fold change /veh KRTAP10-11 (11738290_x_at) / RFU MYO3A (11730013_a_at) / Fold change /veh MYO3A (11730013_a_at) / RFU EBF3 (11725865_a_at) / Fold change /veh EBF3 (11725865_a_at) / RFU CAMK2N1 (11719241_x_at) / Fold change /veh CAMK2N1 (11719241_x_at) / RFU C5orf56 (11738088_a_at) / Fold change /veh C5orf56 (11738088_a_at) / RFU OLFML3 (11715873_a_at) / Fold change /veh OLFML3 (11715873_a_at) / RFU LOC100653217 /// NTM (11731650_a_at) / Fold change /veh LOC100653217 /// NTM (11731650_a_at) / RFU MAPK11 (11762145_a_at) / Fold change /veh MAPK11 (11762145_a_at) / RFU FIZ1 (11724087_x_at) / Fold change /veh FIZ1 (11724087_x_at) / RFU OASL (11726364_x_at) / Fold change /veh OASL (11726364_x_at) / RFU SOX15 (11748057_x_at) / Fold change /veh SOX15 (11748057_x_at) / RFU CD79A (11719716_a_at) / Fold change /veh CD79A (11719716_a_at) / RFU HIST1H1D (11736915_at) / Fold change /veh HIST1H1D (11736915_at) / RFU CASKIN2 (11723855_a_at) / Fold change /veh CASKIN2 (11723855_a_at) / RFU LOC730098 (11760151_x_at) / Fold change /veh LOC730098 (11760151_x_at) / RFU OR4N2 (11742367_at) / Fold change /veh OR4N2 (11742367_at) / RFU PRRT2 (11749266_a_at) / Fold change /veh PRRT2 (11749266_a_at) / RFU SNX32 (11753110_a_at) / Fold change /veh SNX32 (11753110_a_at) / RFU CDHR5 (11726645_a_at) / Fold change /veh CDHR5 (11726645_a_at) / RFU RCAN1 (11760418_a_at) / Fold change /veh RCAN1 (11760418_a_at) / RFU FAM167A (11723789_a_at) / Fold change /veh FAM167A (11723789_a_at) / RFU FAM26E (11764081_at) / Fold change /veh FAM26E (11764081_at) / RFU ISYNA1 (11749810_s_at) / Fold change /veh ISYNA1 (11749810_s_at) / RFU ACY1 (11761880_at) / Fold change /veh ACY1 (11761880_at) / RFU 11764098_at / Fold change /veh 11764098_at / RFU SAMD14 (11745864_x_at) / Fold change /veh SAMD14 (11745864_x_at) / RFU NPB (11741838_a_at) / Fold change /veh NPB (11741838_a_at) / RFU TMPRSS6 (11731388_a_at) / Fold change /veh TMPRSS6 (11731388_a_at) / RFU KRTAP10-2 (11738614_at) / Fold change /veh KRTAP10-2 (11738614_at) / RFU ARHGAP8 /// PRR5-ARHGAP8 (11727945_x_at) / Fold change /veh ARHGAP8 /// PRR5-ARHGAP8 (11727945_x_at) / RFU KRTAP5-7 /// NADSYN1 (11734609_at) / Fold change /veh KRTAP5-7 /// NADSYN1 (11734609_at) / RFU RASL12 (11751679_a_at) / Fold change /veh RASL12 (11751679_a_at) / RFU CDKN2B (11736163_a_at) / Fold change /veh CDKN2B (11736163_a_at) / RFU PRF1 (11729649_at) / Fold change /veh PRF1 (11729649_at) / RFU, ZNF638 /// ZNF638-IT1 / Fold change vs veh, ZNF638 /// ZNF638-IT1 / RFU, PANK3 / Fold change vs veh, PANK3 / RFU, SH3YL1 / Fold change vs veh, SH3YL1 / RFU, ZEB2 / Fold change vs veh, ZEB2 / RFU, NRIP1 / Fold change vs veh, NRIP1 / RFU, PTTG1IP / Fold change vs veh, PTTG1IP / RFU, CAPN2 / Fold change vs veh, CAPN2 / RFU, MED14 / Fold change vs veh, MED14 / RFU, SNORA58 / Fold change vs veh, SNORA58 / RFU, C1orf63 / Fold change vs veh, C1orf63 / RFU, LRRFIP1 / Fold change vs veh, LRRFIP1 / RFU, NDUFAF7 / Fold change vs veh, NDUFAF7 / RFU, SLC12A2 / Fold change vs veh, SLC12A2 / RFU, IBTK / Fold change vs veh, IBTK / RFU, ESF1 / Fold change vs veh, ESF1 / Fold change vs veh, TMEM50B / RFU, TAOK1 / Fold change vs veh, TAOK1 / RFU, ACBD3 / Fold change vs veh, ACBD3 / RFU, TMA16 / Fold change vs veh, TMA16 / RFU, RWDD3 / Fold change vs veh, RWDD3 / RFU, BCAT1 / Fold change vs veh, BCAT1 / RFU, EDEM3 / Fold change vs veh, EDEM3 / RFU, TMEM33 / Fold change vs veh, TMEM33 / RFU, WDR75 / Fold change vs veh, WDR75 / RFU, AHCTF1 / Fold change vs veh, AHCTF1 / RFU, TFRC / Fold change vs veh, TFRC / RFU, ZDHHC17 / Fold change vs veh, ZDHHC17 / RFU, NOM1 / Fold change vs veh, NOM1 / RFU, ARL8B / Fold change vs veh, ARL8B / RFU, ZBTB11 / Fold change vs veh, ZBTB11 / RFU, TAMM41 / Fold change vs veh, TAMM41 / RFU, KIAA1704 /// LOC100996395 / Fold change vs veh, KIAA1704 /// LOC100996395 / RFU, ING1 / Fold change vs veh, ING1 / RFU, TRMT61B / Fold change vs veh, TRMT61B / RFU, FUBP3 / Fold change vs veh, FUBP3 / RFU, TP53 / Fold change vs veh, TP53 / RFU, TNKS2 / Fold change vs veh, TNKS2 / RFU, ZFP14 / Fold change vs veh, ZFP14 / RFU, ACTR2 / Fold change vs veh, ACTR2 / RFU, PPP3R1 / Fold change vs veh, PPP3R1 / RFU, PIK3R1 / Fold change vs veh, PIK3R1 / RFU, HNRNPA1 / Fold change vs veh, HNRNPA1 / RFU, RNF170 / Fold change vs veh, RNF170 / RFU, ZNF28 / Fold change vs veh, ZNF28 / RFU, RNGTT / Fold change vs veh, RNGTT / RFU, OGT / Fold change vs veh, OGT / RFU, BRD1 / Fold change vs veh, BRD1 / RFU, MARS / Fold change vs veh, MARS / RFU, ZNF655 / Fold change vs veh, ZNF655 / RFU, FAHD1 / Fold change vs veh, FAHD1 / RFU, BDP1 / Fold change vs veh, BDP1 / RFU, LRRCC1 / Fold change vs veh, LRRCC1 / RFU, ARID1A / Fold change vs veh, ARID1A / RFU, ZNF146 / Fold change vs veh, ZNF146 / RFU, ZNF330 / Fold change vs veh, ZNF330 / RFU, GPN3 / Fold change vs veh, GPN3 / RFU, C9orf123 / Fold change vs veh, C9orf123 / RFU, N4BP2L2 / Fold change vs veh, N4BP2L2 / RFU, ARFIP1 / Fold change vs veh, ARFIP1 / RFU, FAM179B / Fold change vs veh, FAM179B / RFU, BCL10 / Fold change vs veh, BCL10 / RFU, UHRF1BP1L / Fold change vs veh, UHRF1BP1L / RFU, BET1 / Fold change vs veh, BET1 / RFU, CNOT2 / Fold change vs veh, CNOT2 / RFU, ZNF268 / Fold change vs veh, ZNF268 / Fold change vs veh, ZNF507 / RFU, DGCR2 / Fold change vs veh, DGCR2 / RFU, WDSUB1 / Fold change vs veh, WDSUB1 / Fold change vs veh, HSP90B1 /// MIR3652 / RFU, ADSS / Fold change vs veh, ADSS / RFU, GK / Fold change vs veh, GK / RFU, ZNF148 / Fold change vs veh, ZNF148 / RFU, TAF9 / Fold change vs veh, TAF9 / RFU, SLC1A5 / Fold change vs veh, SLC1A5 / RFU, SLMO2 / Fold change vs veh, SLMO2 / RFU, ABCC4 / Fold change vs veh, ABCC4 / RFU, LOC101060439 /// RAP1B / Fold change vs veh, LOC101060439 /// RAP1B / RFU, RFX7 / Fold change vs veh, RFX7 / RFU, GTPBP10 / Fold change vs veh, GTPBP10 / RFU, CNEP1R1 / Fold change vs veh, CNEP1R1 / RFU, BIVM-ERCC5 /// ERCC5 / Fold change vs veh, BIVM-ERCC5 /// ERCC5 / RFU, ILF3 / Fold change vs veh, ILF3 / RFU 11762660_at / Fold change /veh 11762660_at / RFU VCAN (11757783_s_at) / Fold change /veh VCAN (11757783_s_at) / RFU DDX43 (11728927_at) / Fold change /veh DDX43 (11728927_at) / RFU KRT8 (11758188_x_at) / Fold change /veh KRT8 (11758188_x_at) / RFU NKD1 (11759106_at) / Fold change /veh NKD1 (11759106_at) / RFU SRD5A1 (11742802_a_at) / Fold change /veh SRD5A1 (11742802_a_at) / RFU TPSAB1 /// TPSB2 (11721975_s_at) / Fold change /veh TPSAB1 /// TPSB2 (11721975_s_at) / RFU GSTM3 (11746129_a_at) / Fold change /veh GSTM3 (11746129_a_at) / RFU IL23R (11737362_x_at) / Fold change /veh IL23R (11737362_x_at) / RFU TMEM51 (11727254_a_at) / Fold change /veh TMEM51 (11727254_a_at) / RFU PIWIL2 (11732686_x_at) / Fold change /veh PIWIL2 (11732686_x_at) / RFU ORM1 (11744905_x_at) / Fold change /veh ORM1 (11744905_x_at) / RFU CCDC152 (11743942_at) / Fold change /veh CCDC152 (11743942_at) / RFU ECM1 (11717891_a_at) / Fold change /veh ECM1 (11717891_a_at) / RFU IL23R (11748794_a_at) / Fold change /veh IL23R (11748794_a_at) / RFU TNFAIP8L3 (11732012_x_at) / Fold change /veh TNFAIP8L3 (11732012_x_at) / RFU MBOAT4 (11741988_at) / Fold change /veh MBOAT4 (11741988_at) / RFU 11764193_at / Fold change /veh 11764193_at / RFU TMEM53 (11763286_at) / Fold change /veh TMEM53 (11763286_at) / RFU MAGEB2 (11727129_at) / Fold change /veh MAGEB2 (11727129_at) / RFU TMEM200A (11744735_a_at) / Fold change /veh TMEM200A (11744735_a_at) / RFU CCDC152 (11751479_a_at) / Fold change /veh CCDC152 (11751479_a_at) / RFU FAM211A (11726209_a_at) / Fold change /veh FAM211A (11726209_a_at) / RFU RGS16 (11746705_a_at) / Fold change /veh RGS16 (11746705_a_at) / RFU VCAN (11755009_s_at) / Fold change /veh VCAN (11755009_s_at) / RFU RHOB (11743442_s_at) / Fold change /veh RHOB (11743442_s_at) / RFU RGS16 (11720943_a_at) / Fold change /veh RGS16 (11720943_a_at) / RFU RGS16 (11720944_at) / Fold change /veh RGS16 (11720944_at) / RFU, VPS4B / Fold change vs veh, VPS4B / RFU, CREB1 / Fold change vs veh, CREB1 / RFU, DNAJC13 / Fold change vs veh, DNAJC13 / RFU, GNAQ / Fold change vs veh, GNAQ / RFU, CDK5R1 / Fold change vs veh, CDK5R1 / RFU, ZRANB3 / Fold change vs veh, ZRANB3 / RFU, CUL4A / Fold change vs veh, CUL4A / RFU, CCNY / Fold change vs veh, CCNY / RFU, UFL1 / Fold change vs veh, UFL1 / RFU, COG3 / Fold change vs veh, COG3 / RFU, DIAPH2 / Fold change vs veh, DIAPH2 / RFU, SKA2 / Fold change vs veh, SKA2 / RFU, AFF3 / Fold change vs veh, AFF3 / RFU, LMF1 / Fold change vs veh, LMF1 / RFU, IPO11 / Fold change vs veh, IPO11 / RFU, DFFB / Fold change vs veh, DFFB / RFU, FOXP1 / Fold change vs veh, FOXP1 / RFU, CARD8 / Fold change vs veh, CARD8 / RFU, STRN3 / Fold change vs veh, STRN3 / RFU, ADK / Fold change vs veh, ADK / RFU, RASSF2 / Fold change vs veh, RASSF2 / RFU, WIPF1 / Fold change vs veh, WIPF1 / RFU, LARP1B / Fold change vs veh, LARP1B / RFU, RASA1 / Fold change vs veh, RASA1 / RFU, RB1 / Fold change vs veh, RB1 / RFU, PPFIA1 / Fold change vs veh, PPFIA1 / RFU, MAT2A / Fold change vs veh, MAT2A / RFU, CCT5 / Fold change vs veh, CCT5 / RFU, WDR92 / Fold change vs veh, WDR92 / RFU, CUX1 / Fold change vs veh, CUX1 / RFU, TTC7A / Fold change vs veh, TTC7A / RFU, TMEM135 / Fold change vs veh, TMEM135 / RFU, DEPTOR / Fold change vs veh, DEPTOR / RFU, CPM / Fold change vs veh, CPM / RFU, DNAJB6 / Fold change vs veh, DNAJB6 / RFU, CACNA2D3 / Fold change vs veh, CACNA2D3 / RFU, DTX4 / Fold change vs veh, DTX4 / RFU, TFCP2 / Fold change vs veh, TFCP2 / RFU, GMCL1 /// GMCL1P1 / Fold change vs veh, GMCL1 /// GMCL1P1 / RFU, AEBP2 / Fold change vs veh, AEBP2 / RFU, SNHG1 /// SNORD22 /// SNORD25 /// SNORD26 /// SNORD27 /// SNORD28 /// SNORD29 /// SNORD31 / Fold change vs veh, SNHG1 /// SNORD22 /// SNORD25 /// SNORD26 /// SNORD27 /// SNORD28 /// SNORD29 /// SNORD31 / Fold change (Aza/veh), C12orf56 (ProbeSet 11735607_a_at) / Fold change (ACY-1035/veh), C12orf56 (ProbeSet 11735607_a_at) / Fold change (Aza/veh), FGFR1OP (ProbeSet 11751329_s_at) / Fold change (ACY-1035/veh), FGFR1OP (ProbeSet 11751329_s_at) / Fold change (Aza/veh), VPS36 (ProbeSet 11739960_a_at) / Fold change (ACY-1035/veh), VPS36 (ProbeSet 11739960_a_at) / RFU SYPL1 (11715823_x_at) / Fold change /veh SYPL1 (11715823_x_at) / RFU IGFBP7 (11715501_s_at) / Fold change /veh IGFBP7 (11715501_s_at) / RFU REEP3 (11722064_at) / Fold change /veh REEP3 (11722064_at) / RFU IGLL1 (11728026_x_at) / Fold change /veh IGLL1 (11728026_x_at): dose or concentration left out as unconfirmed
# Conditions: MV-4-11 cells, 48 hours
smiles,measurement,value
Nc1ccc(-c2cccs2)cc1NC(=O)c1ccc2c(c1)cc(C1CC1)n2CCN1CCOCC1 [ACY-1035],RFU IL23R (11748794_a_at),5.77 RFU
